Experimental findings from patent US6355634B1, “Aromatic compounds” (Bayer Aktiengesellschaft, priority 1990, dated 2002) are described below.

Molecules are shown by their SMILES.

For orientation: melting point means the temperature of the solid-liquid transition.

In one data set the test system is Venturia inaequalis. Description: Venturia inaequalis (curative action) on apple seedlings. The format is in vivo. The following applies: 50 ppm spray, apple cv. Golden Delicious, evaluated 9-10 days after treatment, read-out: action (leaf area covered in Venturia inaequalis as a percentage compared with the infected control). The protocol:
Venturia inaequalis (Curative Action)
Two apple seedlings cv. “Golden Delicious” are sprayed with a conidia suspension of Venturia inaequalis and subsequently incubated at 18° C. and under dew-point conditions. After 24 hours, the plants are sprayed thoroughly from all sides with a spray mixture prepared with a wettable powder of the active substance (with 50 ppm of active ingredient). The treated apple seedlings are subsequently cultured further in the greenhouse. 9-10 days after the treatment, the test is evaluated by determining the leaf area covered in Venturia inaequalis as a percentage compared with the infected control.

The test system of the next data set is Cercospora arachidicola. Description: Action against Cercospora arachidicola on peanut plants (curative action). To be noted: Mycosphaerella arachidis, 288 h, 160 ppm spray, peanut cv. Tamnut, evaluated 12 days after treatment, read-out: action (leaf area infected with Cercospora arachidicola as a percentage compared with the infected control). The format is in vivo. The procedure:
Action Against Cercospora arachidicola on Peanut Plants (Curative Action)
Two peanut plants cv. “Tamnut” in the 4-leaf stage are sprayed with a conidia suspension of Cercospora arachidicola (approx. 200,000 conidia/ml) and subsequently incubated at 25-26° C. and under dew-point conditions. After two days, the plants are sprayed thoroughly from all sides with a spray mixture prepared with a wettable powder of the active substance (with 160 ppm of active ingredient). The treated plants are subsequently incubated in a controlled-environment cabinet under the following conditions: 25-27° C. and 80% atmospheric humidity during the day, 20° C. and dew-point conditions during the night; the photoperiod in each case is 16 hours. 12 days after the treatment, the test is evaluated by determining the leaf area infected with Cercospora arachidicola as a percentage compared with the infected control.

For another data set, the system named is Alternaria brassicae. Description: Alternaria brassicae (protective action) on cabbage seedlings. The format is in vivo. To be noted: 50 ppm spray, cabbage cv. Vorbote, evaluated 2-5 days after infection, read-out: action (leaf area infected with Alternaria brassicae as a percentage compared with the infected, untreated control). The procedure:
Alternaria brassicae (Protective Action)
4 cabbage seedlings, cv. “Vorbote”, in the 6-leaf stage, distributed to 2 pots, are sprayed thoroughly with a spray mixture prepared with a wettable powder of the active substance (with 50 ppm of active ingredient) and subsequently cultured further in a controlled-environment cabinet at 19° C. and with 16 hours illumination per day. Two days after the treatment, the plants are infected by spraying with an aqueous conidia suspension (approx. 30,000 conidia/ml). The cabbage plants are then incubated at 24-26° C., under dew-point conditions and with a photoperiod of 16 hours. The test is evaluated 2-5 days after the infection by determining the leaf area infected with Alternaria brassicae as a percentage compared with the infected, untreated control.

The next data set has as its system Plasmopara viticola. Description: Plasmopara viticola (protective action) on grapevine seedlings. The format is in vivo. To be noted: 144 h, 160 ppm spray, grapevine cv. Riesling x Sylvaner, day 6 after infection, read-out: action (leaf area infected with Plasmopara viticola as a percentage compared with the infected, untreated control). The protocol:
Plasmopara viticola (Protective Action)
2 grapevine seedlings cv. Riesling×Sylvaner, each in the 4-5 leaf stage, are sprayed thoroughly from all sides with a spray mixture prepared with a wettable powder of the active substance (with 160 ppm of active ingredient) and subsequently cultured further in a controlled-environment cabinet at 17° C., 70-80% relative atmospheric humidity and with a photoperiod of 16 hours. After 6 days, the test plants are infected by spraying the undersides of the leaves with zoosporangia of Plasmopara viticola, suspended in distilled water (approx. 300,000 sporangia/ml). The grapevine plants are then incubated as follows: 1 day at 22° C. and under dew-point conditions in the dark and subsequently 4 days in the greenhouse. To induce fructification of Plasmopara viticola, the grapevines are transferred to a controlled-environment cabinet with dew-point conditions at 22° C. on day 5 after the infection.
The tests are carried out in each case on day 6 after the infection by determining the leaf area infected with Plasmopara viticola as a percentage compared with the infected, untreated control.

Another data set concerns Puccinia coronata. Description: Puccinia coronata (curative action) on oat seedlings. The format is in vivo. The following applies: 160 ppm spray, oat cv. Selma, evaluated 9-10 days after infection, read-out: action (leaf area infected with Puccinia coronata as a percentage compared with the infected, untreated control). The procedure:
Puccinia coronata (Curative Action)
30-40 oat seedlings cv. “Selma” (distributed to 2 pots of ø7 cm) are infected with Puccinia coronata by spraying with an aqueous spore suspension (approx. 150,000 uredospores/ml). The test plants are subsequently incubated for 24 hours at 20-24° C. and under dew-point conditions. The oat seedlings are then sprayed thoroughly from all sides with a spray mixture prepared with a wettable powder of the active substance (with 160 ppm of active ingredient). They are cultured further in a controlled-environment cabinet at 19° C. and with a photoperiod of 14 hours. The test is evaluated 9-10 days after infection by determining the leaf area infected with Puccinia coronata as a percentage compared with the infected, untreated control.

Another data set has as its system Erysiphe graminis. As to the kind of experiment: Erysiphe graminis (protective action) on wheat seedlings. The following applies: Blumeria graminis, 168 h, 160 ppm spray, wheat cv. Lita, evaluated 7 days after infection, read-out: action (leaf area covered in Erysiphe graminis as a percentage compared with the infected control). The format is in vivo. The procedure: Erysiphe graminis (Protective Action)
30-40 wheat seedlings cv. “Lita” in the 1-leaf stage (distributed to two pots of ø7 cm) are sprayed thoroughly with a spray mixture prepared with a wettable powder of the active substance (with 160 ppm of active ingredient) and then cultured further in the greenhouse. One day after the treatment, the plants are dusted with conidia of Erysiphe graminis. The test is evaluated 7 days after the infection by determining the size of the leaf area covered in Erysiphe graminis as a percentage compared with the infected control.
Untreated, but infected control plants show a level of infection with Erysiphe of 100%.

With `CO/N=C(\C(=O)OC)c1ccccc1CON=C(c1ccccc1)C1CC1` [Compound 36], the pest or weed control at 50 ppm in the data set with Venturia inaequalis and in the data set with Alternaria brassicae was more than 75% in each case. Moreover, the pest or weed control at 160 ppm with Cercospora arachidicola and in the data set with Plasmopara viticola was more than 75% in each case.
Turning to `CO/N=C(\C(=O)OC)c1ccccc1CON=C(C)c1ccc(F)c(C(F)(F)F)c1` [Compound 90], the pest or weed control at 160 ppm in the data set on Cercospora arachidicola and in the data set on Puccinia coronata was more than 75% in each case.
With `CO/N=C(\C(=O)OC)c1ccccc1CON=C(C)c1cccc(Br)c1` [Compound 22], the pest or weed control at 50 ppm with Venturia inaequalis and in the data set with Alternaria brassicae was more than 75% each time. For the same compound, the pest or weed control at 160 ppm in the data set with Cercospora arachidicola and in the data set with Plasmopara viticola was more than 75% each time.
As to `CO/N=C(\C(=O)OC)c1ccccc1CON=C(c1cccc(C(F)(F)F)c1)C1CC1` [Compound 148], the pest or weed control at 160 ppm in the data set on Cercospora arachidicola and in the data set on Puccinia coronata was more than 75% each time.
Turning to `CO/N=C(\C(=O)OC)c1ccccc1CON=C(c1cccc(Br)c1)C(F)(F)F` [Compound 30], the pest or weed control at 50 ppm with Venturia inaequalis and with Alternaria brassicae was more than 75% each time. The pest or weed control at 160 ppm with Cercospora arachidicola and with Plasmopara viticola was more than 75% each time.
Take `CO/N=C(\C(=O)OC)c1ccccc1CON=C(C)c1cccc(Cl)c1` [Compound 135]: the pest or weed control at 160 ppm in the data set with Erysiphe graminis and with Plasmopara viticola was more than 75% in each case. Further, the pest or weed control at 50 ppm with Venturia inaequalis is more than 75%.
In the case of `CO/N=C(\C(=O)OC)c1ccccc1CON=C(c1ccc(C)cc1)C(F)(F)F` [Compound 31], the pest or weed control at 160 ppm in the data set with Erysiphe graminis and in the data set on Plasmopara viticola was more than 75% in each case. The pest or weed control at 50 ppm with Venturia inaequalis and in the data set on Alternaria brassicae was more than 75% throughout.
For `CCC(=NOCc1ccccc1/C(=N/OC)C(=O)OC)c1ccc2ccccc2c1` [Compound 120], the pest or weed control at 160 ppm in the data set with Erysiphe graminis and in the data set with Plasmopara viticola was more than 75% each time.
Take `CO/N=C(\C(=O)OC)c1ccccc1CON=C(c1ccc2c(c1)OCO2)C1CC1` [Compound 41]: the pest or weed control at 160 ppm in the data set with Cercospora arachidicola and in the data set with Plasmopara viticola was more than 75% in each case.
As for `CO/N=C(\C(=O)OC)c1ccccc1CON=C(C)c1cccc(OC(F)(F)F)c1` [Compound 138], the pest or weed control at 160 ppm in the data set with Cercospora arachidicola, in the data set with Plasmopara viticola and in the data set on Puccinia coronata was more than 75% throughout. Also, the pest or weed control at 50 ppm in the data set with Alternaria brassicae is more than 75%.
Turning to `CO/N=C(\C(=O)OC)c1ccccc1CON=C(C)C(=O)c1ccc(F)cc1` [Compound 128], the pest or weed control at 160 ppm with Erysiphe graminis and in the data set on Puccinia coronata was more than 75% throughout.
As for `CO/N=C(\C(=O)OC)c1ccccc1CON=C(C)c1cccc(C(F)(F)F)c1` [Compound 12], the pest or weed control at 50 ppm in the data set with Venturia inaequalis and in the data set on Alternaria brassicae was more than 75% in each case. Further, the pest or weed control at 160 ppm with Cercospora arachidicola, with Plasmopara viticola and in the data set on Puccinia coronata was more than 75% in each case.
With `CO/N=C(\C(=O)OC)c1ccccc1CON=C(C)Cc1cccc(C(F)(F)F)c1` [Compound 24], the pest or weed control at 160 ppm in the data set with Erysiphe graminis, in the data set on Cercospora arachidicola and in the data set with Plasmopara viticola was more than 75% throughout. Moreover, the pest or weed control at 50 ppm with Venturia inaequalis and with Alternaria brassicae was more than 75% in each case.
Take `CO/N=C(\C(=O)OC)c1ccccc1CON=C(C)C(=O)c1cccc(Br)c1` [Compound 129]: the pest or weed control at 160 ppm in the data set on Cercospora arachidicola and with Plasmopara viticola was more than 75% throughout.
In the case of `CO/N=C(\C(=O)OC)c1ccccc1CON=C(C)c1ccc2c(c1)OCO2` [Compound 38], the pest or weed control at 50 ppm in the data set on Venturia inaequalis and in the data set on Alternaria brassicae was more than 75% each time. The pest or weed control at 160 ppm with Cercospora arachidicola and in the data set with Plasmopara viticola was more than 75% in each case.
On to `CO/N=C(\C(=O)OC)c1ccccc1CON=C(C)C(=O)c1cccc(C(F)(F)F)c1` [Compound 131], for which the pest or weed control at 50 ppm with Venturia inaequalis was more than 75%. Further, the pest or weed control at 160 ppm in the data set on Puccinia coronata was more than 75%.
Turning to `CO/N=C(\C(=O)OC)c1ccccc1CON=C(C)c1ccco1`, the melting point is 95 to 97 °C.
Compound `CO/N=C(\C(=O)OC)c1ccccc1CON=C(C)c1ccc(F)cc1` [Compound 34] had a melting point of 89 to 90 °C. The pest or weed control at 160 ppm with Erysiphe graminis is more than 75%. The pest or weed control at 50 ppm in the data set on Venturia inaequalis is more than 75%. For the same compound, the pest or weed control at 160 ppm in the data set with Cercospora arachidicola was more than 75%. Moreover, the pest or weed control at 50 ppm in the data set on Alternaria brassicae was more than 75%.
With `CO/N=C(\C(=O)OC)c1ccccc1CON=C(C)c1ccc(OC(F)F)cc1` [Compound 78], in the data set with Venturia inaequalis, the pest or weed control at 50 ppm is more than 75%. Further, the pest or weed control at 160 ppm in the data set with Puccinia coronata is more than 75%.
As to `CO/N=C(\C(=O)OC)c1ccccc1CON=C(C)c1ccccn1` [Compound 15], the melting point is 82 to 84 °C. For the same compound, the pest or weed control at 160 ppm with Erysiphe graminis is more than 75%. The pest or weed control at 50 ppm in the data set on Venturia inaequalis is more than 75%.
On to `CO/N=C(\C(=O)OC)c1ccccc1CON=C(c1ccc2ccccc2c1)C1CC1` [Compound 150], for which, in the data set on Alternaria brassicae, the pest or weed control at 50 ppm is more than 75%. For the same compound, the pest or weed control at 160 ppm in the data set on Plasmopara viticola is more than 75%.
Consider `CO/N=C(\C(=O)OC)c1ccccc1CON=C(C)c1ccc(Cl)cc1` [Compound 17], for which the pest or weed control at 50 ppm in the data set on Venturia inaequalis and with Alternaria brassicae was more than 75% each time. Moreover, the pest or weed control at 160 ppm with Cercospora arachidicola, in the data set on Plasmopara viticola and in the data set on Puccinia coronata was more than 75% in each case.
For the compound `CO/N=C(\C(=O)OC)c1ccccc1CON=C(C)Cc1ccc(Cl)c(C(F)(F)F)c1` [Compound 133], the pest or weed control at 160 ppm in the data set with Cercospora arachidicola and with Puccinia coronata was more than 75% throughout.
Regarding `CCC(=NOCc1ccccc1/C(=N/OC)C(=O)OC)c1ccccc1` [Compound 28], the pest or weed control at 50 ppm with Venturia inaequalis and with Alternaria brassicae was more than 75% each time. Moreover, in the data set with Plasmopara viticola, the pest or weed control at 160 ppm was more than 75%.
For the compound `CO/N=C(\C(=O)OC)c1ccccc1CON=C(c1ccccc1)C(C)C` [Compound 29], the pest or weed control at 160 ppm in the data set with Erysiphe graminis and in the data set on Plasmopara viticola was more than 75% throughout. In addition, the pest or weed control at 50 ppm in the data set on Venturia inaequalis and in the data set with Alternaria brassicae was more than 75% throughout.
The compound `CO/N=C(\C(=O)OC)c1ccccc1CON=C(C)c1cc(C(F)(F)F)cc(C(F)(F)F)c1` [Compound 33] had a melting point of 76 to 78 °C. For the same compound, the pest or weed control at 160 ppm in the data set on Erysiphe graminis is more than 75%. In addition, the pest or weed control at 50 ppm with Venturia inaequalis is more than 75%. Besides, the pest or weed control at 160 ppm in the data set on Cercospora arachidicola is more than 75%. In addition, the pest or weed control at 50 ppm in the data set with Alternaria brassicae was more than 75%.
